Reference: patent publication US4771068A, “Mitomycin derivatives having anti-tumor and antibacterial utility” (priority 1985, dated 1988)
Converted amounts (≈) assume the structure as drawn.

Key:
peripheral leucocytes = assay: Effect on the peripheral leucocytes number; type: in vivo, mouse (ddY strain); conditions: minimum dose reducing peripheral leucocytes number to 4000/mm^3; tumour-carrying ddY mice, intraperitoneal, 4 days after administration
Description: WBC4000 : Minimum dose of a test compound which reduces the
peripheral leucocytes number to 4000/mm^3.
Sarcoma 180 solid tumour cells (5×10^6) were subcutaneously implanted into the right axilla of each mouse (body weight 20±2 g) of a group consisting of 5 male mice (ddY strain). 24 hours after implantation,a test compound was intraperitoneally administered to each animal. 4 days after the administration, blood (each 0.02 ml) was collected from the suborbital plexus vein of each tumour-carrying animal. The collected sample of blood was dispersed in 9.98 ml of Cell-Kit Seven solution. One drop of saponin solution was added to the sample to dissolve erythrocytes and then a microcell counter was used to count the number of leucocytes. […] The relationship between the number of peripheral leucocytes and the dose of the test compound was plotted and the dose (i.e., WBC4000) corresponding to 4000 peripheral leucocytes/mm^3 (about half the number of leucocytes of normal mice) was obtained.

Solubility in water = type: physicochemical; conditions: aqueous buffer; 0.03M phosphate buffer (pH 7.0), 22° C., 15 minutes
Description: 1 mg of a test compound was added to 100 μl of 0.03M phosphate buffer (pH 7.0). The mixture was stirred at 22° C. for 15 minutes and filtered through Ekicrodisc 3 (disposable filter unit, Gelman Sciences Japan Co.) to remove insoluble matters. The filtrate is a saturated solution of the test compound. Predetermined amount of the saturated solution was injected into a high performance liquid chromatograph [column: YMC-A212 (C8) .phi.6 mm, 150 mm, eluting solvent: 0.01M-ammonium acetate/methanol, wave length for detection: 254 nm] and peak area of the chromatogram was calculated. Separately, a solution of the test compound in methanoL having a certain concentration of the compound was similarly subjected to the chromatography to make the calibration curve. The solubility of the test compound was calculated by the calibration curve.

[1] = test system: Klebsiella pneumoniae ATCC 10031; assay: Antibacterial activity (minimum growth inhibitory concentration), agar dilution method; type: cell-based; conditions: ATCC10031; Klebsiella pneumoniae ATCC 10031, pH 7.0, agar dilution method; read-out: minimum growth inhibitory concentration, KP
Description: (§1) Antibacterial activities of Compounds (I) against various bacteria are shown by the minimum growth inhibitory concentration (μg/ml) in Table 3. The minimum growth inhibitory concentration was measured at pH 7.0 according to the agar dilution method. In the table, bacteria are indicated by the following letters.
KP: Klebsiella pneumoniae ATCC 10031

Acute toxicity = conditions: mouse, in vivo, ip; ddY mice, intraperitoneally once, 14 days observation
Description: Each animal of the test group consisting of 5 ddY mice was administered intraperitoneally once with a test compound. […] The LD50 was determined by Beherns Kaerber's method.

Bacillus subtilis 10707 = assay: Antibacterial activity (minimum growth inhibitory concentration), agar dilution method; type: cell-based; conditions: Bacillus subtilis 10707, pH 7.0, agar dilution method; read-out: minimum growth inhibitory concentration, BS
Description: as §1
BS: Bacillus subtilis 10707

[2] = test system: Staphylococcus aureus ATCC 6538P; assay: as above; type: cell-based; conditions: ATCC6538P, pH 7.0, agar dilution method, read-out: minimum growth inhibitory concentration, SA
Description: as §1
SA: Staphylococcus aureus ATCC 6538P

[3] = test system: Proteus vulgalis ATCC 6897; assay: as above; type: cell-based; conditions: pH 7, read-out: minimum growth inhibitory concentration, PV
Description: as §1
PV: Proteus vulgalis ATCC 6897

Sarcoma 180 solid tumour = assay: animal or person; conditions: for CIc: CI of test compound divided by CI of mitomycin C as control in the same condition; for ED50: Mus musculus, Sarcoma-180, iv, 168 h; for CI (LD50/ED50): chemotherapeutic index
Description: CIc : Value given by division of CI of each test compound by CI of
determination of antitumour activity of the test compound. A CIc
5×10^6 cells of Sarcoma 180 solid tumour were intraperitoneally implanted into ddY mice. 7 days later, ascites cells were sampled. The cells were washed once with a sterilized physiological sodium chloride solution and were used to prepare a cell suspension containing 5×10^7 cells per ml with a sterilized physiological sodium chloride solution. On each occasion, 0.1 ml of the cell suspension was subcutaneously implanted into the right axilla of a male mouse (ddY strain; body weight 20±2 g).
The anti-tumour activity was determined in the following manner. 7 days after the implantation, the major axis (a) and the minor axis (b) of the tumour were measured to calculate a value of "a×b^2 /2" which corresponds to the volume of the tumour. The anti-tumour activity was expressed by the ratio (T/C) of the volume (T) of the tumours of the group of animals administered with the test compound to the corresponding volume (C) of tumours of the untreated animals.
On graph paper, T/C was indicated by an arithmetic scale on the longitudinal axis and the administered amount of the test compound was indicated by a logarithmic scale on the lateral axis.

[4] = test system: Streptococcus faecalis ATCC 10541; assay: Antibacterial activity (minimum growth inhibitory concentration), agar dilution method; type: cell-based; conditions: Enterococcus faecalis, ATCC10541; Streptococcus faecalis ATCC 10541, pH 7.0, agar dilution method; read-out: minimum growth inhibitory concentration, SF
Description: as §1
SF: Streptococcus faecalis ATCC 10541

## CO[C@@]12[C@H](COC(N)=O)C3=C(C(=O)C(C)=C(NCCCCCCSC(C)=O)C3=O)N1C[C@@H]1N[C@@H]12 [Compound 11]
Peripheral leucocytes
  WBC4000: 31.3 mg/kg
Solubility in water
  solubility at 0.25 h: 210 µg/mL (≈ 426 µM)
[1]
  MIC: 1.3 µg/mL (≈ 2.64 µM)
Acute toxicity
  LD50 at 336 h: > 200 mg/kg
Bacillus subtilis 10707
  MIC: 0.16 µg/mL (≈ 0.325 µM)
[2]
  MIC: 0.16 µg/mL (≈ 0.325 µM)
[3]
  MIC: 2.5 µg/mL (≈ 5.08 µM)
Sarcoma 180 solid tumour
  CIc: 3.9
  ED50: 27 mg/kg
  CI (LD50/ED50): > 7.4
[4]
  MIC: 0.16 µg/mL (≈ 0.325 µM)

## CO[C@@]12[C@H](COC(N)=O)C3=C(C(=O)C(C)=C(NCCSC(=O)c4ccccc4)C3=O)N1C[C@@H]1N[C@@H]12 [Compound 13]
Peripheral leucocytes
  WBC4000: > 5 mg/kg
Solubility in water
  solubility at 0.25 h: 73 µg/mL (≈ 146 µM)
[1]
  MIC: 1.3 µg/mL (≈ 2.61 µM)
Acute toxicity
  LD50 at 336 h: 6 mg/kg
Bacillus subtilis 10707
  MIC: < 0.02 µg/mL
[2]
  MIC: < 0.02 µg/mL
[3]
  MIC: 5 µg/mL (≈ 10 µM)
Sarcoma 180 solid tumour
  CIc: 0.91
  ED50: 4.1 mg/kg
  CI (LD50/ED50): 1.5
[4]
  MIC: 0.039 µg/mL (≈ 0.0782 µM)

## CO[C@@]12[C@H](COC(N)=O)C3=C(C(=O)C(C)=C(NCCSC(=O)c4ccc(Br)cc4)C3=O)N1C[C@@H]1N[C@@H]12 [Compound 21]
Peripheral leucocytes
  WBC4000: 11.5 mg/kg
Solubility in water
  solubility at 0.25 h: 4.7 µg/mL (≈ 8.14 µM)
[1]
  MIC: 1.3 µg/mL (≈ 2.25 µM)
Acute toxicity
  LD50 at 336 h: 9.4 mg/kg
Bacillus subtilis 10707
  MIC: < 0.02 µg/mL
[2]
  MIC: < 0.02 µg/mL
[3]
  MIC: 5 µg/mL (≈ 8.66 µM)
Sarcoma 180 solid tumour
  CIc: 1.9
  ED50: 2 mg/kg
  CI (LD50/ED50): 4.7
[4]
  MIC: 0.039 µg/mL (≈ 0.0675 µM)

## CO[C@@]12[C@H](COC(N)=O)C3=C(C(=O)C(C)=C(NCCSC(C)=S)C3=O)N1C[C@@H]1N[C@@H]12 [Compound 26]
Peripheral leucocytes
  WBC4000: 7.6 mg/kg
Solubility in water
  solubility at 0.25 h: 260 µg/mL (≈ 575 µM)
[1]
  MIC: 0.078 µg/mL (≈ 0.172 µM)
Acute toxicity
  LD50 at 336 h: 6.6 mg/kg
Bacillus subtilis 10707
  MIC: < 0.02 µg/mL
[2]
  MIC: < 0.02 µg/mL
[3]
  MIC: 0.63 µg/mL (≈ 1.39 µM)
Sarcoma 180 solid tumour
  CIc: 1.6
  ED50: 1.2 mg/kg
  CI (LD50/ED50): 5.5
[4]
  MIC: < 0.02 µg/mL
